Key:
[1] = system: AMATU WR-2012-017-08 (resistant against HPPD-inhibitor herbicides and atrazine (PSII-inhibitor)); test: Greenhouse pre-emergence herbicidal activity, AMATU WR-2012-017-08; assay type: in vivo, Amaranthus tuberculatus; conditions: 3 weeks, mean of 6
[2] = system: AMATU WR-2013-044 (resistant against HPPD-inhibitor herbicides and atrazine (PSII-inhibitor)); test: Greenhouse pre-emergence herbicidal activity, AMATU WR-2013-044; assay type: in vivo, Amaranthus tuberculatus; conditions: 3 weeks, mean of 6

Compound | Activity [%] against AMATU WR-2012-017-08 ([1]; rate 75 g/ha) [%] | Activity [%] against AMATU WR-2012-017-08 ([1]; rate 150 g/ha) [%] | Activity [%] against AMATU WR-2013-044 ([2]; rate 75 g/ha) [%] | Activity [%] against AMATU WR-2013-044 ([2]; rate 150 g/ha) [%] | Activity [%] against AMATU WR-2012-017-08 ([1]; rate 52 g/ha) [%] | Activity [%] against AMATU WR-2012-017-08 ([1]; rate 105 g/ha) [%] | Activity [%] against AMATU WR-2013-044 ([2]; rate 52 g/ha) [%] | Activity [%] against AMATU WR-2013-044 ([2]; rate 105 g/ha) [%]
O=C(Nc1ccc(F)cc1F)c1cccnc1Oc1cccc(C(F)(F)F)c1 [DFF, 2′,4′-difluoro-2-[3-(trifluoromethyl)phenoxy]pyridine-3-carboxanilide] | 66.7 | 86.3 | 69.2 | 80.8 |  |  |  | 
CS(=O)(=O)c1ccc(C(=O)C2C(=O)CCCC2=O)c([N+](=O)[O-])c1 [MST, 2-[4-(methylsulfonyl)-2-nitrobenzoyl]cyclohexane-1,3-dione] |  |  |  |  | 59.2 | 84.2 | 70.0 | 76.7
